Key:
Test in all cases: relative viability (nuclei count vs DMSO), 5 days (fraction); higher = more cells survive
[1] = tested on: SW 1573
Summary of the method: (§1)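 Relative viability is defined as nuclei in treated wells over nuclei in vehicle wells. Duplicate plates were run and medians reported. Lung cancer cell lines in 1536-well plates were dosed by pin tool one day after seeding, with one drug or with a fixed anchor-drug dose plus five library-drug doses (not always all listed) in √10 steps, and nuclei were counted after 5 days.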

[2] = tested on: NCI-H650
Summary of the method: as §1

[3] = tested on: LU99A
Summary of the method: as §1

[4] = tested on: HCC-78
Summary of the method: as §1

[5] = tested on: HARA
Summary of the method: as §1

[6] = tested on: NCI-H358
Summary of the method: as §1

[7] = tested on: LC-2-ad
Summary of the method: as §1

[8] = tested on: NCI-H2023
Summary of the method: as §1

[9] = tested on: EPLC-272H
Summary of the method: as §1

[10] = tested on: HCC-15
Summary of the method: as §1

[11] = tested on: NCI-H2126
Summary of the method: as §1

[12] = tested on: NCI-H2085
Summary of the method: as §1

[13] = tested on: NCI-H1651
Summary of the method: as §1

[14] = tested on: NCI-H2342
Summary of the method: as §1

[15] = tested on: PC-14
Summary of the method: as §1

[16] = tested on: NCI-H838
Summary of the method: as §1

[17] = tested on: COR-L23
Summary of the method: as §1

[18] = tested on: ABC-1
Summary of the method: as §1

[19] = tested on: NCI-H1915
Summary of the method: as §1

[20] = tested on: NCI-H2347
Summary of the method: as §1

[21] = tested on: NCI-H1355
Summary of the method: as §1

[22] = tested on: UMC-11
Summary of the method: as §1

[23] = tested on: NCI-H1993
Summary of the method: as §1

CC1(C)CCC(c2ccc(Cl)cc2)=C(CN2CCN(c3ccc(C(=O)NS(=O)(=O)c4ccc(N[C@H](CCN5CCOCC5)CSc5ccccc5)c(S(=O)(=O)C(F)(F)F)c4)cc3)CC2)C1 [Navitoclax] + Nc1ncn([C@H]2C[C@H](O)[C@@H](CO)O2)c(=O)n1 [Decitabine] (partner 2 µM)
relative viability ([1]; first compound 0.005 µM): 0.498 | relative viability ([1]; first compound 0.01581 µM): 0.683 | relative viability ([1]; first compound 0.05 µM): 0.387 | relative viability ([1]; first compound 0.1581 µM): 0.386 | relative viability ([1]; first compound 0.5 µM): 0.364 | relative viability ([2]; first compound 0.005 µM): 0.331 | relative viability ([2]; first compound 0.01581 µM): 0.298 | relative viability ([2]; first compound 0.05 µM): 0.32 | relative viability ([2]; first compound 0.1581 µM): 0.336 | relative viability ([2]; first compound 0.5 µM): 0.264 | relative viability ([3]; first compound 0.005 µM): 0.876 | relative viability ([3]; first compound 0.01581 µM): 0.977 | relative viability ([3]; first compound 0.1581 µM): 0.921 | relative viability ([3]; first compound 0.5 µM): 0.989 | relative viability ([4]; first compound 0.005 µM): 0.759 | relative viability ([4]; first compound 0.01581 µM): 0.732 | relative viability ([4]; first compound 0.05 µM): 0.605 | relative viability ([4]; first compound 0.1581 µM): 0.636 | relative viability ([4]; first compound 0.5 µM): 0.798 | relative viability ([5]; first compound 0.005 µM): 0.463 | relative viability ([5]; first compound 0.01581 µM): 0.736 | relative viability ([5]; first compound 0.05 µM): 0.414 | relative viability ([5]; first compound 0.1581 µM): 0.622 | relative viability ([5]; first compound 0.5 µM): 0.466 | relative viability ([6]; first compound 0.005 µM): 0.234 | relative viability ([6]; first compound 0.01581 µM): 0.225 | relative viability ([6]; first compound 0.05 µM): 0.206 | relative viability ([6]; first compound 0.1581 µM): 0.213 | relative viability ([6]; first compound 0.5 µM): 0.187 | relative viability ([7]; first compound 0.005 µM): 0.793 | relative viability ([7]; first compound 0.01581 µM): 0.72 | relative viability ([7]; first compound 0.05 µM): 0.673 | relative viability ([7]; first compound 0.1581 µM): 0.701 | relative viability ([7]; first compound 0.5 µM): 0.774 | relative viability ([8]; first compound 0.005 µM): 0.22 | relative viability ([8]; first compound 0.01581 µM): 0.248 | relative viability ([8]; first compound 0.05 µM): 0.188 | relative viability ([8]; first compound 0.1581 µM): 0.191 | relative viability ([8]; first compound 0.5 µM): 0.229 | relative viability ([9]; first compound 0.005 µM): 0.346 | relative viability ([9]; first compound 0.05 µM): 0.377 | relative viability ([9]; first compound 0.1581 µM): 0.302 | relative viability ([9]; first compound 0.5 µM): 0.38 | relative viability ([10]; first compound 0.005 µM): 0.64 | relative viability ([10]; first compound 0.01581 µM): 0.652 | relative viability ([10]; first compound 0.05 µM): 0.386 | relative viability ([10]; first compound 0.1581 µM): 0.625 | relative viability ([10]; first compound 0.5 µM): 0.411 | relative viability ([11]; first compound 0.005 µM): 0.595 | relative viability ([11]; first compound 0.01581 µM): 0.647 | relative viability ([11]; first compound 0.05 µM): 0.522 | relative viability ([11]; first compound 0.1581 µM): 0.547 | relative viability ([11]; first compound 0.5 µM): 0.564 | relative viability ([12]; first compound 0.005 µM): 0.612 | relative viability ([12]; first compound 0.01581 µM): 0.695 | relative viability ([12]; first compound 0.05 µM): 0.474 | relative viability ([12]; first compound 0.1581 µM): 0.579 | relative viability ([12]; first compound 0.5 µM): 0.562 | relative viability ([13]; first compound 0.005 µM): 0.797 | relative viability ([13]; first compound 0.01581 µM): 0.591 | relative viability ([13]; first compound 0.05 µM): 0.42 | relative viability ([13]; first compound 0.1581 µM): 0.628 | relative viability ([13]; first compound 0.5 µM): 0.644 | relative viability ([14]; first compound 0.005 µM): 0.799 | relative viability ([14]; first compound 0.01581 µM): 0.764 | relative viability ([14]; first compound 0.05 µM): 0.653 | relative viability ([14]; first compound 0.1581 µM): 0.679 | relative viability ([14]; first compound 0.5 µM): 0.713 | relative viability ([15]; first compound 0.005 µM): 0.237 | relative viability ([15]; first compound 0.01581 µM): 0.2 | relative viability ([15]; first compound 0.05 µM): 0.228 | relative viability ([15]; first compound 0.1581 µM): 0.211 | relative viability ([15]; first compound 0.5 µM): 0.19 | relative viability ([16]; first compound 0.005 µM): 0.457 | relative viability ([16]; first compound 0.01581 µM): 0.506 | relative viability ([16]; first compound 0.05 µM): 0.47 | relative viability ([16]; first compound 0.1581 µM): 0.423 | relative viability ([16]; first compound 0.5 µM): 0.46 | relative viability ([17]; first compound 0.005 µM): 0.428 | relative viability ([17]; first compound 0.01581 µM): 0.425 | relative viability ([17]; first compound 0.05 µM): 0.432 | relative viability ([17]; first compound 0.1581 µM): 0.428 | relative viability ([17]; first compound 0.5 µM): 0.437 | relative viability ([18]; first compound 0.005 µM): 0.889 | relative viability ([18]; first compound 0.01581 µM): 1.21 | relative viability ([18]; first compound 0.05 µM): 1.02 | relative viability ([18]; first compound 0.1581 µM): 0.986 | relative viability ([18]; first compound 0.5 µM): 1 | relative viability ([19]; first compound 0.005 µM): 0.263 | relative viability ([19]; first compound 0.01581 µM): 0.242 | relative viability ([19]; first compound 0.05 µM): 0.274 | relative viability ([19]; first compound 0.1581 µM): 0.247 | relative viability ([19]; first compound 0.5 µM): 0.25 | relative viability ([20]; first compound 0.005 µM): 0.668 | relative viability ([20]; first compound 0.01581 µM): 0.551 | relative viability ([20]; first compound 0.05 µM): 0.574 | relative viability ([20]; first compound 0.1581 µM): 0.654 | relative viability ([20]; first compound 0.5 µM): 0.582 | relative viability ([21]; first compound 0.005 µM): 0.338 | relative viability ([21]; first compound 0.01581 µM): 0.372 | relative viability ([21]; first compound 0.05 µM): 0.369 | relative viability ([21]; first compound 0.1581 µM): 0.355 | relative viability ([21]; first compound 0.5 µM): 0.347 | relative viability ([22]; first compound 0.005 µM): 0.707 | relative viability ([22]; first compound 0.01581 µM): 0.635 | relative viability ([22]; first compound 0.05 µM): 0.616 | relative viability ([22]; first compound 0.1581 µM): 0.547 | relative viability ([22]; first compound 0.5 µM): 0.609 | relative viability ([23]; first compound 0.005 µM): 0.659 | relative viability ([23]; first compound 0.01581 µM): 0.751 | relative viability ([23]; first compound 0.05 µM): 0.62 | relative viability ([23]; first compound 0.1581 µM): 0.56 | relative viability ([23]; first compound 0.5 µM): 0.596
